According to patent publication US20250281424A1 (New York Blood Center, Inc, priority 2020, published 2025):

Target: T1, human PF4 (Homo sapiens, UniProt P02776)
T1 construct: PF4 is a 70 amino acid, lysine-rich 7.8 kDa platelet-specific protein; made in house; host or cells: Escherichia coli BL21DE3 pLysS (pT7-7) and/or Drosophila S2 cells
T1 sequence (P02776 32-101): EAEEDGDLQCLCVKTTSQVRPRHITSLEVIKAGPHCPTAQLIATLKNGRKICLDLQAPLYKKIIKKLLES
Test: Inhibition of PF4 tetramer formation (BS3 cross-linking, SDS-PAGE)
Format: biochemical
Details: for inhibition at 1 µM: 1 μM inhibitor; for inhibition at 1 µM / inhibition at 3 µM / inhibition at 5 µM / inhibition at 10 µM: read-out: % inhibition of PF4 tetramer formation at single concentration of inhibitor; for inhibition at 3 µM: 3 μM inhibitor (column A); for inhibition at 5 µM: 5 μM inhibitor; for inhibition at 10 µM: 10 μM inhibitor (column A); for IC50: read-out: IC50 of PF4 tetramer formation inhibition
Outline: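 Recombinant human wild-type PF4 (E. coli-expressed, heparin-purified), 10 μg/ml in PBS, incubated with compound 15 min at 37° C or 60 min at room temperature, then cross-linked with 0.2 mM BS3 for 30 min at room temperature. Reducing 12% SDS-PAGE; bands quantified as % tetramer, trimer, dimer, monomer versus compound-free control.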

Row | Structure (SMILES) | inhibition at 1 µM | inhibition at 3 µM | inhibition at 5 µM | inhibition at 10 µM | IC50
1 | O=C(c1ccc2c(c1)C(=O)C(C(=O)CC1CC1)C2=O)c1ccc2c(c1)C(=O)C(C(=O)CC1CC1)C2=O (centres unmarked) [Example 140, 2-(2-cyclopropylacetyl)-5-[2-(2-cyclopropylacetyl)-1,3-dioxo-2,3-dihydro-1H-indene-5-carbonyl]-2,3-dihydro-1H-indene-1,3-dione] |  |  | 92% | 93% | 4.7 µM
2 | O=C(c1ccc2c(c1)C(=O)C(C(=O)Nc1cc(Cl)nc(Cl)c1)C2=O)c1ccc2c(c1)C(=O)C(C(=O)Nc1cc(Cl)nc(Cl)c1)C2=O (centres unmarked) [Example 17, 5,5′-carbonylbis(1,3-dioxo-indan-2-carboxylic acid (2,6-dichloro-pyridin-4-yl)-amide)] |  |  |  |  | 1.08 µM
3 | Cc1ccccc1C(=O)CCC(=O)C1C(=O)c2ccc(S(=O)(=O)c3ccc4c(c3)C(=O)C(C(=O)CCC(=O)c3ccccc3C)C4=O)cc2C1=O (centres unmarked) [Example 254, 2-[4-(2-methylphenyl)-4-oxobutanoyl]-5-({2-[4-(2-methylphenyl)-4-oxobutanoyl]-1,3-dioxo-2,3-dihydro-1H-inden-5-yl}sulfonyl)-2,3-dihydro-1H-indene-1,3-dione] | 28% | 51% |  |  | 
4 | C[C@H]1C[C@@H](C(=O)C2C(=O)c3ccc(S(=O)(=O)c4ccc5c(c4)C(=O)C(C(=O)[C@@H]4C[C@H](C)CN4C(=O)OC(C)(C)C)C5=O)cc3C2=O)N(C(=O)OC(C)(C)C)C1 (stereo partly drawn) [Example 224, tert-butyl (2S,4S)-2-[5-({2-[(2S,4S)-1-[(tert-butoxy)carbonyl]-4-methylpyrrolidine-2-carbonyl]-1,3-dioxo-2,3-dihydro-1H-inden-5-yl}sulfonyl)-1,3-dioxo-2,3-dihydro-1H-indene-2-carbonyl]-4-methylpyrrolidine-1-carboxylate] |  |  | 100% | 95% | 2.2 µM
5 | COCCNC(=O)C1C(=O)c2ccc(C(=O)c3ccc4c(c3)C(=O)C(C(=O)NCCOC)C4=O)cc2C1=O (centres unmarked) [Example 74, 5,5′-carbonylbis(n-(2-methoxyethyl)-1,3-dioxo-2,3-dihydro-1h-indene-2-carboxamide)] |  |  | 19% | 46% | 
6 | COC(=O)N1CCC[C@H]1C(=O)C1C(=O)c2ccc(-c3ccc4c(c3)C(=O)C(C(=O)[C@@H]3CCCN3C(=O)OC)C4=O)cc2C1=O (stereo partly drawn) [Example 213, methyl (2S)-2-{2′-[(2S)-1-(methoxycarbonyl)pyrrolidine-2-carbonyl]-1,1′,3,3′-tetraoxo-1H,1′H,2H,2′H,3H,3′H-[5,5′-biindene]-2-carbonyl}pyrrolidine-1-carboxylate] |  |  | 87% | 89% | 4.8 µM

Second part, led by results:

Row | inhibition at 1 µM | inhibition at 3 µM | Structure (SMILES) | inhibition at 5 µM | inhibition at 10 µM | IC50
7 | 25% | 50% | C[C@H](NC(=O)C1C(=O)c2ccc(C(=O)c3ccc4c(c3)C(=O)C(C(=O)N[C@@H](C)C(=O)O)C4=O)cc2C1=O)C(=O)O (stereo partly drawn) [Example 316, (2S)-2-{[5-(2-{[(1S)-1-carboxyethyl]carbamoyl}-1,3-dioxo-2,3-dihydro-1H-indene-5-carbonyl)-1,3-dioxo-2,3-dihydro-1H-inden-2-yl]formamido}propanoic acid] |  |  | 
8 | 2% | 27% | O=C(c1ccc2c(c1)C(=O)C(C(=O)[C@@H]1CCNC1)C2=O)c1ccc2c(c1)C(=O)C(C(=O)[C@H]1CCCN1)C2=O (stereo partly drawn) [Example 349, 5-{1,3-dioxo-2-[(3R)-pyrrolidine-3-carbonyl]-2,3-dihydro-1H-indene-5-carbonyl}-2-[(2R)-pyrrolidine-2-carbonyl]-2,3-dihydro-1H-indene-1,3-dione] |  |  | 
9 | 14% | 50% | CC(=O)NCCCC(=O)C1C(=O)c2ccc(C(=O)c3ccc4c(c3)C(=O)C(C(=O)CCCNC(C)=O)C4=O)cc2C1=O (centres unmarked) [Example 269, N-(4-{5-[2-(4-acetamidobutanoyl)-1,3-dioxo-2,3-dihydro-1H-indene-5-carbonyl]-1,3-dioxo-2,3-dihydro-1H-inden-2-yl}-4-oxobutyl)acetamide] |  |  | 
